{
  "source": "BindingDB's records for doi:10.1126/scitranslmed.abb5883",
  "about": "(University of North Carolina at Chapel Hill, 2020)",
  "key": {"[1]": {"target": "T1, Replicase polyprotein 1ab (Severe acute respiratory syndrome coronavirus 2, UniProt P0DTD1)", "experiment": "SARS-CoV-2 in Vero E6", "procedure": "Vero E6 cells were plated at 20,000 cells/well in a 96-well plate. 24hr later, medium containing a dose response of NHC was added concurrent with SARS-CoV-2 (2019-nCoV/USA-WA1/2020 strain) at an MOI of 0.05. 48 hours post infection, cell viability was measured by CellTiter Glo assay."}, "[2]": {"target": "T1, Replicase polyprotein 1ab", "experiment": "SARS-CoV-2 in Calu-3", "procedure": "Calu-3 2B4 cells were adsorbed with MOI 0.1 PFU/cell of SARS-CoV-2 (2019-nCoV/USA-WA1/2020 strain) at 37°C. Plates were manually rocked every 10 min to redistribute the inoculum. After 30 min, virus inoculum was removed, cells were washed with Phosphate buffered saline (PBS) once to remove unbound virus, medium containing NHC or vehicle control (DMSO) was added back onto the cells, and cells were incubated for 72 hours at 37°C."}},
  "note": "Several values for one entry are separate records, joined by “and”; a condition that tells them apart may be missing. Equal entries are not always repeated.",
  "data": [
    {"smiles": "O=c1nc(NO)ccn1[C@@H]1O[C@H](CO)[C@@H](O)[C@H]1O", "note": "[NHC]", "values": [
      {"measurement": "IC50", "setting": "[1]", "result": 300, "unit": "nM"},
      {"measurement": "IC50", "setting": "[2]", "result": "80 nM and 90 nM"}
    ]}
  ]
}
